Laboratory results: US7662838B2, “Use of a deoxynojirimycin derivative or a pharmaceutically salt thereof” (Genzyme Corporation, priority 2003, dated 2010)
Where two headings read alike, the source gives them in different places. Blank lines part the entries; values can stand above or below the compound they belong to.

How the values were obtained:
[1] = target: glycan trimming α-glucosidase; details: cited from earlier work
sucrase = target: T1, sucrase (Rattus norvegicus, UniProt P23739); experiment: In vitro sucrase activity, intestinal membrane preparation; assay type: biochemical
T1 construct: Membrane homogenates were prepared by extensive washing and homogenization; from tissue; host or cells: rat intestinal membrane homogenate
T1 sequence (P23739 1014-1841 limits assumed): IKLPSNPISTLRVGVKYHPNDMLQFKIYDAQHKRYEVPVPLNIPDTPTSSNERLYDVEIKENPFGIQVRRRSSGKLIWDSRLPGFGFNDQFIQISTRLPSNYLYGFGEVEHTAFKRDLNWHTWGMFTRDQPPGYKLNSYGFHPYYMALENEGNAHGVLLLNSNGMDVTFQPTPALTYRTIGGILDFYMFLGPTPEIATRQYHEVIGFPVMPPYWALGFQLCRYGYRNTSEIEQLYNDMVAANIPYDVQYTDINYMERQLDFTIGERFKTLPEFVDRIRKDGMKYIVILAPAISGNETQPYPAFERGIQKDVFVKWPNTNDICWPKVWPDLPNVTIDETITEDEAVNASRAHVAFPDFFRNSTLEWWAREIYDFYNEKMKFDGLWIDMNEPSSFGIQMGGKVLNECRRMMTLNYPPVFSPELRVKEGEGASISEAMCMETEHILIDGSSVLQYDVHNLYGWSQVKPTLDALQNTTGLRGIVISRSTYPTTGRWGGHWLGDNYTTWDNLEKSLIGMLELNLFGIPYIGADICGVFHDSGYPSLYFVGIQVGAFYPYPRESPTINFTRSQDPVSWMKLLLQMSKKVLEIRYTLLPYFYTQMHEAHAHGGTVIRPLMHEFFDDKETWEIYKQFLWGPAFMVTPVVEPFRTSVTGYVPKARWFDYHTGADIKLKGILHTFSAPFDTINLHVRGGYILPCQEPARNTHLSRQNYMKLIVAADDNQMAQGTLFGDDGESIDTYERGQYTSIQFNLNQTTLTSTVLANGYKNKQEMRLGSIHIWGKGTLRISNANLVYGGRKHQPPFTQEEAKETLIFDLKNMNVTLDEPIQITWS
T1 sequence (P23739 1-1013 partner limits assumed): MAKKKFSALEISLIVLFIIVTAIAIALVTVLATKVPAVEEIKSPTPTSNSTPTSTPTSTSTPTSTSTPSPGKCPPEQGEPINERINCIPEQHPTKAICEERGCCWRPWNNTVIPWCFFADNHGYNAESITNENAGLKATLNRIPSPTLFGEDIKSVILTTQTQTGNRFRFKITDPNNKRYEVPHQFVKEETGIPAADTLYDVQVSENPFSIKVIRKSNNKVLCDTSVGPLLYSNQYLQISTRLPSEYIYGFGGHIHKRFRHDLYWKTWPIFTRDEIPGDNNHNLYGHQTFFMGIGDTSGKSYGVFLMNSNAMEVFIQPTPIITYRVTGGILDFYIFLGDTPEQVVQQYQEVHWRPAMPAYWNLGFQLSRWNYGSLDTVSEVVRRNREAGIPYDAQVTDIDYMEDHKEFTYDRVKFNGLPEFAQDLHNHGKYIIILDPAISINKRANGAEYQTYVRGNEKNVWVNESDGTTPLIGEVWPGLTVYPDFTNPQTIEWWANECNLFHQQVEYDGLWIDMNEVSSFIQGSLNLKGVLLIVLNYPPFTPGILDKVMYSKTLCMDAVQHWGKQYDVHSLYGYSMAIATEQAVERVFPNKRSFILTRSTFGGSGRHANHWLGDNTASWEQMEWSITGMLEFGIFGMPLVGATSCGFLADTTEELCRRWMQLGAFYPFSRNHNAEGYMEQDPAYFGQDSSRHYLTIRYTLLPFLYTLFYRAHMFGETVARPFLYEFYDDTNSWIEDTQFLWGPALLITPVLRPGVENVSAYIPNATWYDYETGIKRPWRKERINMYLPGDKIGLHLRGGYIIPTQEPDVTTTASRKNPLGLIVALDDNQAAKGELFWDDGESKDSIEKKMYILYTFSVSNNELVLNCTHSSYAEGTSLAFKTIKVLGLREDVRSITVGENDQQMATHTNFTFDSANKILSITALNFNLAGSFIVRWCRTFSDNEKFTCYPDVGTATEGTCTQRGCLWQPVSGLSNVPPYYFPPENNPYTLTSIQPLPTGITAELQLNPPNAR

surface GM3 = experiment: Surface GM3 expression by FACS after 3 days exposure of cells; assay type: cell-based; details: 72 h, cells exposed for 3 days, read-out: IC50 value for surface GM3 reduction
debranching enzyme = target: T2, debranching enzyme (Homo sapiens, UniProt P35573); experiment: Debranching enzyme activity, glucose release from limit dextrin, erythrocyte homogenate; assay type: biochemical; details: read-out: IC50 value for inhibition of Debranching enzyme
T2 construct: As enzyme source erythrocytes are used since they contain no other enzymes that can degrade glycogen or limit dextrin; from tissue; host or cells: erythrocyte homogenate
T2 sequence (P35573 whole entry): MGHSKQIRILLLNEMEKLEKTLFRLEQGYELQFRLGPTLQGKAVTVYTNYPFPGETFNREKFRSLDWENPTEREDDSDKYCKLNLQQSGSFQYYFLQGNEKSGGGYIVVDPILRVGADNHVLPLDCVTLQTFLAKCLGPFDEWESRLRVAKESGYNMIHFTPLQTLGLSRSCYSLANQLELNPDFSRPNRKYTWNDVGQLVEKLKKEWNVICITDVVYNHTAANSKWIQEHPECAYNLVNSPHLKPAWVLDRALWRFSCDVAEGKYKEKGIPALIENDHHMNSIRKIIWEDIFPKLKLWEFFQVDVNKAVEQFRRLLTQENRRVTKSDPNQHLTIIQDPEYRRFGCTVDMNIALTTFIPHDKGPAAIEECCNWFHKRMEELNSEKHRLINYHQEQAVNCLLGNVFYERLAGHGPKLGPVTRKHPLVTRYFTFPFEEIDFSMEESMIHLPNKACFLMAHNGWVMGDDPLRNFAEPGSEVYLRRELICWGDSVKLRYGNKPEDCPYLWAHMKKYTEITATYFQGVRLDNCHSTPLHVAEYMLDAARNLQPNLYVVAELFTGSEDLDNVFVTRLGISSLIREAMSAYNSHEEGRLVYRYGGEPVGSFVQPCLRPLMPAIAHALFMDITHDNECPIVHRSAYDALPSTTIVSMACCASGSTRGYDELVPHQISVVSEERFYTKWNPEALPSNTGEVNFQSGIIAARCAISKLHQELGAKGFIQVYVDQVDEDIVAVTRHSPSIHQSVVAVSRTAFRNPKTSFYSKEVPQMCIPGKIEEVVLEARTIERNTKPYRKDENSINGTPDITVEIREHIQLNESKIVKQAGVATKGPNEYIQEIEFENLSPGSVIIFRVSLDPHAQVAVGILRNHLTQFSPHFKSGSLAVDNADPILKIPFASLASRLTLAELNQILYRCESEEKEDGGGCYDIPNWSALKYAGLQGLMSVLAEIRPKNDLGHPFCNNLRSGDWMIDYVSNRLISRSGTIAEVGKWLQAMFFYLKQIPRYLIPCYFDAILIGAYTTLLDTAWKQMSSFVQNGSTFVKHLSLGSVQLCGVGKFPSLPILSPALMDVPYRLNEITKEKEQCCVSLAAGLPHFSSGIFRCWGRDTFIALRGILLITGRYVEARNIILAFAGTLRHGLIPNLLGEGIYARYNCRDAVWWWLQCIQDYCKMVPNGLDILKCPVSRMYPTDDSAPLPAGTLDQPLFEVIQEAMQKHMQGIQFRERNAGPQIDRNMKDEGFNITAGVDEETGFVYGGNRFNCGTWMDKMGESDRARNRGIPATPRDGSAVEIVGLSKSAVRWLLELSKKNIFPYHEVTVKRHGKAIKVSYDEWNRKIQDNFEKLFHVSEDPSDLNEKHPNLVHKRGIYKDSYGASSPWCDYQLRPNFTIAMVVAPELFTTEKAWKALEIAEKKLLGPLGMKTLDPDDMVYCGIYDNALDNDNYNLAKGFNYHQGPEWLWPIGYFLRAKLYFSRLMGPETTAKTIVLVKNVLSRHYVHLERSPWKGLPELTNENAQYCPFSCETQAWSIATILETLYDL

[2] = Plasma level and tissue penetration after oral dosing; assay type: in vivo, mice
lactase = target: T3, lactase (Rattus norvegicus, UniProt Q02401); experiment: In vitro lactase activity, intestinal membrane preparation; assay type: biochemical; details: rat intestinal membranes; read-out: IC50 value for inhibition of Lactase
T3 construct: Membrane homogenates were prepared by extensive washing and homogenization; from tissue; host or cells: rat intestinal membrane homogenate
T3 sequence (Q02401 868-1928): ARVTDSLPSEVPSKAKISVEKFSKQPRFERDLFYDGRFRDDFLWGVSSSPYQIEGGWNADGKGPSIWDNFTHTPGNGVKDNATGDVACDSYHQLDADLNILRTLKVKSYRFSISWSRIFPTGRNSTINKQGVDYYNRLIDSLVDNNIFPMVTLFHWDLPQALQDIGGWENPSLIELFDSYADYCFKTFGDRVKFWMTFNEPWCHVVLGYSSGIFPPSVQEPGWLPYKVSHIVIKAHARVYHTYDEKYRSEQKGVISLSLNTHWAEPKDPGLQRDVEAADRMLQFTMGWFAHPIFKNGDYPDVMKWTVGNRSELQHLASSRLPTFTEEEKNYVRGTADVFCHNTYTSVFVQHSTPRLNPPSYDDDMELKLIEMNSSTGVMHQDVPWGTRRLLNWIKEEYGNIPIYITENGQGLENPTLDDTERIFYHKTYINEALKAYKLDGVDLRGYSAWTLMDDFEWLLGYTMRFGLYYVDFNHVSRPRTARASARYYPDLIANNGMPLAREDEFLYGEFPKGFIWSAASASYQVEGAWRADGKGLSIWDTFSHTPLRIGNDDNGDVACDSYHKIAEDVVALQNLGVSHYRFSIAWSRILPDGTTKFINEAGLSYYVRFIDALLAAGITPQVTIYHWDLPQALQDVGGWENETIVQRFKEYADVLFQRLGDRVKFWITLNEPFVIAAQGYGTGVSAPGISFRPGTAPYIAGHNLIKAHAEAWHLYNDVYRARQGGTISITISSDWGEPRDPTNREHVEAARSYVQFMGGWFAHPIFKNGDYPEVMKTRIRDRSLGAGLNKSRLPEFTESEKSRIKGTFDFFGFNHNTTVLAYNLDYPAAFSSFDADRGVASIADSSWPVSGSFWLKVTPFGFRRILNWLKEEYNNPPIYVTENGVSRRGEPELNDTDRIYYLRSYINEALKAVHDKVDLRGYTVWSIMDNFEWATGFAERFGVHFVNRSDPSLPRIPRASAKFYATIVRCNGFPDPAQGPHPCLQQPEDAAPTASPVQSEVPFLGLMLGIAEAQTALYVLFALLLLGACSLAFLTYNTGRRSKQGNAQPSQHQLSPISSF

FVB and C57BL/6J mice = experiment: Tissue (glyco)sphingolipid levels in orally treated FVB and C57BL/6J mice (HPLC, TLC)
[3] = Pharmacological features (bioavailability, metabolism); details: in vivo
[4] = tested on: C57BL/6J mice (ob-/-, db-/-, +/+); experiment: Oral treatment of obese, diabetes and normal C57BL/6J mice: glucose and water intake; assay type: in vivo
Method: Plasma glucose, water intake and food intake were monitored.
Mice (obese-lep^ob (C57B1/6)laHsd-Lep^ob); diabetes-lepr^db (C57B1/6KsOlaHsd—Lepr^db); wildtype (C57B1/6J OlaHsd) and wild type FVB (FVB/NHanHsd) were obtained from Harlan Nederland. Animals were fed with AM-II diet with or without N-(5-adamantane-1-yl-methoxy-pentyl)deoxynojirimycin (Hope Farms Netherlands). Mice were kept in groups of five in each cage. Water consumption and food intake were determined three times weekly per cage. Body weight of individual animals was determined three times weekly. Glucose in plasma was determined with the GOD-PAP method (Merck), and glucose in urine was determined using […] test strips (Roche).

[5] = Tolerability in animal studies; assay type: in vivo
[6] = tested on: cultured adipocytes and muscle cells; experiment: Insulin signaling in cultured adipocytes and muscle cells (GLUT4, deoxyglucose uptake); assay type: cell-based
Excerpt: Initial experiments already confirmed this effect.

[7] = many individuals; cited from earlier work
[8] = rat intestinal membranes, read-out: IC50 value for inhibition of Sucrase
[9] = obese and diabetes mice, administration by food, dose-dependent
[10] = intestinal sucrase, read-out: IC50 value for sucrase

- IC50 (sucrase; [8]): 500 µM
SMILES: CCCCN1C[C@H](O)[C@@H](O)[C@H](O)[C@H]1CO [N-butyl-deoxynojirimycin]
- Ki glycan trimming α-glucosidase in vitro [1]: sub-μM

- IC50 (surface GM3): ~250 nM
- IC50 (debranching enzyme): > 500 µM
- concentration at 4 weeks ([2]; mouse, plasma, oral, 4 weeks 100 mg/kg orally, enzymatic method, read-out: plasma levels): ~1000 nM
- brain penetration ([2]; oral administration): poorly penetrates in the brain
- IC50 (lactase): 18 mM
- metabolism [3]: lack of metabolism
- oral bioavailability ([3]; po): good oral bioavailability
- IC50 (sucrase; [10]): 4500 µM
SMILES: OC[C@@H]1[C@@H](O)[C@H](O)[C@@H](O)CN1CCCCCOCC12CC3CC(CC(C3)C1)C2 [AMP-DNM, N-(5-adamantane-1-yl-methoxy-pentyl)deoxynojirimycin]
- brain gangliosides or sulfatide (FVB and C57BL/6J mice; TLC, brain): No changes
- liver GM3 (FVB and C57BL/6J mice; TLC, liver, 2 wks 100 mg/kg): marked reduction
- muscle GM3 (FVB and C57BL/6J mice; TLC, muscle): reduction
- brain galactosylceramide concentration (FVB and C57BL/6J mice; brain, 100 mg/kg oral): No changes
- liver glucosylceramide reduced by (FVB and C57BL/6J mice; liver, 100 mg/kg oral): 80%
- ceramide concentration (FVB and C57BL/6J mice; liver, muscle and brain, 100 mg/kg oral): No changes
- muscle glucosylceramide reduced by (FVB and C57BL/6J mice; muscle, 100 mg/kg oral): 50%
- urinary glucose ([4]; after 2 weeks treatment, particularly ob-/ob- mice at highest dose): major reduction
- blood glucose ([4]; normal mice): small reduction
- blood glucose [4, 9]: reductions
- water intake [4, 9]: reductions
- overt pathology in animal studies [5]: does not result in any overt pathology
- tolerability in animal studies [5]: well tolerated
- surface expression of GLUT4 ([6]; adipocytes): increased
- deoxyglucose uptake ([6]; cultured adipocytes and muscle cells): increased

- IC50 (sucrase; [10]): < 5000 µM
- IC50 (sucrase; [8]): 100 µM
SMILES: OCCN1C[C@H](O)[C@@H](O)[C@H](O)[C@H]1CO [N-hydroxyethyl-deoxynojirimycin]
- tolerability (intestinal complaints) [7]: not very well tolerated

SMILES: C[C@H]1O[C@H](O[C@H]2[C@H](O)[C@@H](O)[C@@H](O[C@H]3[C@H](O)[C@@H](O)C(O)O[C@@H]3CO)O[C@@H]2CO)[C@H](O)[C@@H](O)[C@@H]1N[C@H]1C=C(CO)[C@@H](O)[C@H](O)[C@H]1O (some centres unmarked) [Acarbose]
- tolerability (intestinal complaints) [7]: not very well tolerated
